Tests used:
Experiment in all cases: Test B pre-/postemergence plant response
Format in all cases: in vivo
[1] = test system: blackgrass (Alopecurus myosuroides); details: Preemergence; for Blackgrass plant response rating: 8 g ai/ha
Procedure, shortened: (§1)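 Preemergence and postemergence (plants 2-18 cm, 1- to 4-leaf stage) applications used test chemicals in a non-phytotoxic solvent with surfactant. Plants were held in a greenhouse 13 to 15 days, then rated visually against controls on a 0-100 scale (0 no effect, 100 complete control).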

[2] = test system: catchweed bedstraw (Galium aparine); details: Preemergence
Procedure, shortened: as §1

[3] = test system: cocklebur (Xanthium strumarium); details: Preemergence; for Cocklebur plant response rating: 8 g ai/ha
Procedure, shortened: as §1

[4] = test system: common (oilseed) sunflower (Helianthus annuus); details: Preemergence
Procedure, shortened: as §1

[5] = test system: common ragweed (Ambrosia elation); details: Preemergence
Procedure, shortened: as §1

[6] = test system: giant foxtail (Setaria faberii); details: Preemergence
Procedure, shortened: as §1

[7] = test system: goosegrass (Eleusine indica); details: Preemergence
Procedure, shortened: as §1

[8] = test system: johnsongrass (Sorghum halepense); details: Preemergence
Procedure, shortened: as §1

[9] = test system: lambsquarters (Chenopodium album); details: Preemergence
Procedure, shortened: as §1

[10] = test system: large crabgrass (Digitaria sanguinalis); details: Preemergence
Procedure, shortened: as §1

[11] = test system: wheat (Triticum aestivum); details: Preemergence
Procedure, shortened: as §1

wild oat (Avena fatua) = details: Preemergence
Procedure, shortened: as §1

[12] = test system: yellow nutsedge (Cyperus esculentus); details: Preemergence
Procedure, shortened: as §1

[13] = 16 g ai/ha, scale 0 to 100 (0 no effect, 100 complete control)
[14] = 31 g ai/ha, 0 to 100 scale, 0 no effect, 100 complete control
[15] = 31 g ai/ha, scale 0 to 100 (0 no effect, 100 complete control)

Cn1ncc(O)c(-c2nn(-c3ccc(Cl)cc3)cc2Br)c1=O [Compound 31]
Plant response rating, Blackgrass [1, 13]: 90 | Plant response rating, Blackgrass [1, 14]: 98 | Plant response rating, Blackgrass ([1]; 62 g ai/ha, scale 0 to 100): 100 | Blackgrass plant response rating ([1]; scale 0 to 100): 80 | Plant response rating, Galium [2, 13]: 0 | Plant response rating, Galium [2, 14]: 0 | Plant response rating, Galium ([2]; 62 g ai/ha, scale 0 to 100): 50 | Galium plant response rating ([2]; 8 g ai/ha, scale 0 to 100): 0 | Plant response rating, Cocklebur [3, 13]: 0 | Plant response rating, Cocklebur [3, 14]: 0 | Plant response rating, Cocklebur ([3]; 62 g ai/ha, scale 0 to 100): 0 | Cocklebur plant response rating ([3]; scale 0 to 100): 0 | Plant response rating, Sunflower [4, 13]: 0 | Plant response rating, Sunflower [4, 14]: 0 | Plant response rating, Sunflower ([4]; 62 g ai/ha, scale 0 to 100): 0 | Sunflower plant response rating ([4]; 8 g ai/ha, scale 0 to 100): 0 | Plant response rating, Ragweed [5, 13]: 0 | Plant response rating, Ragweed [5, 14]: 0 | Plant response rating, Ragweed ([5]; 62 g ai/ha, scale 0 to 100): 0 | Ragweed plant response rating ([5]; 8 g ai/ha, scale 0 to 100): 0 | Plant response rating, Foxtail, Giant [6, 13]: 90 | Plant response rating, Foxtail, Giant [6, 14]: 100 | Plant response rating, Foxtail, Giant ([6]; 62 g ai/ha, scale 0 to 100): 100 | Foxtail, Giant plant response rating ([6]; 8 g ai/ha, scale 0 to 100): 90 | Plant response rating, Goosegrass [7, 13]: 90 | Plant response rating, Goosegrass [7, 14]: 100 | Plant response rating, Goosegrass ([7]; 62 g ai/ha, scale 0 to 100): 100 | Goosegrass plant response rating ([7]; 8 g ai/ha, scale 0 to 100): 85 | Plant response rating, Johnsongrass [8, 13]: 60 | Plant response rating, Johnsongrass [8, 14]: 75 | Plant response rating, Johnsongrass ([8]; 62 g ai/ha, scale 0 to 100): 75 | Johnsongrass plant response rating ([8]; 8 g ai/ha, scale 0 to 100): 55 | Plant response rating, Lambsquarters [9, 13]: 0 | Plant response rating, Lambsquarters [9, 14]: 0 | Plant response rating, Lambsquarters ([9]; 62 g ai/ha, scale 0 to 100): 0 | Lambsquarters plant response rating ([9]; 8 g ai/ha, scale 0 to 100): 0 | Plant response rating, Crabgrass, Large [10, 13]: 90 | Plant response rating, Crabgrass, Large [10, 14]: 100 | Plant response rating, Crabgrass, Large ([10]; 62 g ai/ha, scale 0 to 100): 100 | Crabgrass, Large plant response rating ([10]; 8 g ai/ha, scale 0 to 100): 80 | Plant response rating, Wheat [11, 13]: 0 | Plant response rating, Wheat [11, 14]: 0 | Plant response rating, Wheat ([11]; 62 g ai/ha, scale 0 to 100): 80 | Wheat plant response rating ([11]; 8 g ai/ha, scale 0 to 100): 0 | Plant response rating, Oat, Wild (wild oat (Avena fatua); [13]): 45 | Plant response rating, Oat, Wild (wild oat (Avena fatua); [14]): 70 | Plant response rating, Oat, Wild (wild oat (Avena fatua); 62 g ai/ha, scale 0 to 100): 90 | Plant response rating, Nutsedge, Yellow [12, 13]: 0 | Plant response rating, Nutsedge, Yellow [12, 14]: 0 | Plant response rating, Nutsedge, Yellow ([12]; 62 g ai/ha, scale 0 to 100): 0 | Nutsedge, Yellow plant response rating ([12]; 8 g ai/ha, scale 0 to 100): 0

Cc1cc(-c2ccc(Cl)cc2)nn1-c1c(OS(=O)(=O)c2ccccc2[N+](=O)[O-])cnn(C)c1=O [Compound 51]
Plant response rating, Blackgrass [1, 13]: 98 | Plant response rating, Blackgrass [1, 14]: 98 | Plant response rating, Blackgrass ([1]; 62 g ai/ha, scale 0 to 100): 100 | Blackgrass plant response rating ([1]; scale 0 to 100): 50 | Plant response rating, Galium [2, 14]: 0 | Plant response rating, Galium ([2]; 62 g ai/ha, scale 0 to 100): 0 | Galium plant response rating ([2]; 8 g ai/ha, scale 0 to 100): 0 | Galium plant response rating ([2]; 16 g ai/ha, scale 0 to 100): 0 | Plant response rating, Cocklebur [3, 13]: 0 | Plant response rating, Cocklebur [3, 14]: 0 | Plant response rating, Cocklebur ([3]; 62 g ai/ha, scale 0 to 100): 0 | Cocklebur plant response rating ([3]; scale 0 to 100): 0 | Plant response rating, Sunflower [4, 15]: 0 | Plant response rating, Sunflower ([4]; 62 g ai/ha, scale 0 to 100): 0 | Sunflower plant response rating ([4]; 8 g ai/ha, scale 0 to 100): 0 | Sunflower plant response rating ([4]; 16 g ai/ha, scale 0 to 100): 0 | Plant response rating, Ragweed [5, 15]: 0 | Plant response rating, Ragweed ([5]; 62 g ai/ha, scale 0 to 100): 0 | Ragweed plant response rating ([5]; 8 g ai/ha, scale 0 to 100): 0 | Ragweed plant response rating ([5]; 16 g ai/ha, scale 0 to 100): 0 | Plant response rating, Foxtail, Giant [6, 14]: 100 | Plant response rating, Foxtail, Giant ([6]; 62 g ai/ha, scale 0 to 100): 100 | Foxtail, Giant plant response rating ([6]; 8 g ai/ha, scale 0 to 100): 80 | Foxtail, Giant plant response rating ([6]; 16 g ai/ha, scale 0 to 100): 100 | Plant response rating, Goosegrass [7, 14]: 75 | Plant response rating, Goosegrass ([7]; 62 g ai/ha, scale 0 to 100): 90 | Goosegrass plant response rating ([7]; 8 g ai/ha, scale 0 to 100): 0 | Goosegrass plant response rating ([7]; 16 g ai/ha, scale 0 to 100): 60 | Plant response rating, Johnsongrass [8, 14]: 70 | Plant response rating, Johnsongrass ([8]; 62 g ai/ha, scale 0 to 100): 80 | Johnsongrass plant response rating ([8]; 16 g ai/ha, scale 0 to 100): 50 | Plant response rating, Lambsquarters [9, 14]: 0 | Plant response rating, Lambsquarters ([9]; 62 g ai/ha, scale 0 to 100): 0 | Plant response rating, Crabgrass, Large [10, 14]: 75 | Plant response rating, Crabgrass, Large ([10]; 62 g ai/ha, scale 0 to 100): 90 | Crabgrass, Large plant response rating ([10]; 8 g ai/ha, scale 0 to 100): 0 | Crabgrass, Large plant response rating ([10]; 16 g ai/ha, scale 0 to 100): 20 | Plant response rating, Wheat [11, 15]: 10 | Plant response rating, Wheat ([11]; 62 g ai/ha, 0 to 100 scale, 0 no effect, 100 complete control): 60 | Wheat plant response rating ([11]; 8 g ai/ha, scale 0 to 100): 0 | Wheat plant response rating ([11]; 16 g ai/ha, scale 0 to 100): 0 | Plant response rating, Oat, Wild (wild oat (Avena fatua); [15]): 80 | Plant response rating, Oat, Wild (wild oat (Avena fatua); 62 g ai/ha, scale 0 to 100): 90 | Oat, Wild plant response rating (wild oat (Avena fatua); 8 g ai/ha, scale 0 to 100): 0 | Oat, Wild plant response rating (wild oat (Avena fatua); 16 g ai/ha, scale 0 to 100): 10 | Plant response rating, Nutsedge, Yellow [12, 15]: 0 | Plant response rating, Nutsedge, Yellow ([12]; 62 g ai/ha, scale 0 to 100): 0 | Nutsedge, Yellow plant response rating ([12]; 8 g ai/ha, scale 0 to 100): 0 | Nutsedge, Yellow plant response rating ([12]; 16 g ai/ha, scale 0 to 100): 0
